Key:
Format in all cases: cell-based
CCRF-CEM = test: NCI-60 one-dose SRB screen (Leukemia); conditions: Homo sapiens, single dose 10 µM, 48 h, read-out: Growth inhibition percent (GI %)
Method: (§1) The National Cancer Institute (NCI) Developmental Therapeutic Program (www.dtp.nci.nih.gov) selected the 20 novel synthesized compounds 4a-e, 5a-e, 6a-c, 9a-e, 10 and 11 to test for their anticancer activity at a single dose of 10 µM using SRB assay. […] Supplementary Data S3; Table S1 presents the detailed screening results of the most promising compounds. The preliminary screening’s detailed results for the remaining compounds are elucidated in the (Supplementary Data S3; Table S2).
(§2) The guidelines of the Drug Evaluation Branch’s protocol at the NCI in Bethesda served as the basis for the in vitro anticancer screening assays. at one dose 10 µM against a panel of 60 cancer cell lines. The human tumor cell lines used belonged to nine panels: leukemia, melanoma, lung, colon, CNS, ovarian, renal, prostate and breast cancers using the sulforhodamine B (SRB) assay in a 48 h drug exposure protocol.

HL-60(TB) = test: NCI-60 one-dose SRB screen (Leukemia); conditions: Homo sapiens, single dose 10 µM, 48 h, read-out: Growth inhibition percent (GI %)
Method: as §1, §2

K-562 = test: NCI-60 one-dose SRB screen (Leukemia); conditions: Homo sapiens, K562, single dose 10 µM, 48 h, read-out: Growth inhibition percent (GI %)
Method: as §1, §2

MOLT-4 = test: NCI-60 one-dose SRB screen (Leukemia); conditions: Homo sapiens, single dose 10 µM, 48 h, read-out: Growth inhibition percent (GI %)
Method: as §1, §2

RPMI-8226 = test: NCI-60 one-dose SRB screen (Leukemia); conditions: Homo sapiens, single dose 10 µM, 48 h, read-out: Growth inhibition percent (GI %)
Method: as §1, §2

SR = test: NCI-60 one-dose SRB screen (Leukemia); conditions: Homo sapiens, single dose 10 µM, 48 h, read-out: Growth inhibition percent (GI %)
Method: as §1, §2

A549/ATCC = test: NCI-60 one-dose SRB screen (Non-Small Cell Lung Cancer); conditions: Homo sapiens, single dose 10 µM, 48 h, read-out: Growth inhibition percent (GI %)
Method: as §1, §2

EKVX = test: as above; conditions: Homo sapiens, single dose 10 µM, 48 h, read-out: Growth inhibition percent (GI %)
Method: as §1, §2

HOP-62 = test: as above; conditions: Homo sapiens, single dose 10 µM, 48 h, read-out: Growth inhibition percent (GI %)
Method: as §1, §2

HOP-92 = test: as above; conditions: Homo sapiens, single dose 10 µM, 48 h, read-out: Growth inhibition percent (GI %)
Method: as §1, §2

NCI-H226 = test: as above; conditions: Homo sapiens, single dose 10 µM, 48 h, read-out: Growth inhibition percent (GI %)
Method: as §1, §2

NCI-H23 = test: as above; conditions: Homo sapiens, single dose 10 µM, 48 h, read-out: Growth inhibition percent (GI %)
Method: as §1, §2

NCI-H322M = test: as above; conditions: Homo sapiens, single dose 10 µM, 48 h, read-out: Growth inhibition percent (GI %)
Method: as §1, §2

NCI-H460 = test: as above; conditions: Homo sapiens, single dose 10 µM, 48 h, read-out: Growth inhibition percent (GI %)
Method: as §1, §2

NCI-H522 = test: as above; conditions: Homo sapiens, single dose 10 µM, 48 h, read-out: Growth inhibition percent (GI %)
Method: as §1, §2

COLO 205 = test: NCI-60 one-dose SRB screen (Colon Cancer); conditions: Homo sapiens, single dose 10 µM, 48 h, read-out: Growth inhibition percent (GI %)
Method: as §1, §2

HCC-2998 = test: NCI-60 one-dose SRB screen (Colon Cancer); conditions: Homo sapiens, single dose 10 µM, 48 h, read-out: Growth inhibition percent (GI %)
Method: as §1, §2

HCT-116 = test: NCI-60 one-dose SRB screen (Colon Cancer); conditions: Homo sapiens, single dose 10 µM, 48 h, read-out: Growth inhibition percent (GI %)
Method: as §1, §2

HCT-15 = test: NCI-60 one-dose SRB screen (Colon Cancer); conditions: Homo sapiens, single dose 10 µM, 48 h, read-out: Growth inhibition percent (GI %)
Method: as §1, §2

HT29 = test: NCI-60 one-dose SRB screen (Colon Cancer); conditions: Homo sapiens, HT-29, single dose 10 µM, 48 h, read-out: Growth inhibition percent (GI %)
Method: as §1, §2

KM12 = test: NCI-60 one-dose SRB screen (Colon Cancer); conditions: Homo sapiens, single dose 10 µM, 48 h, read-out: Growth inhibition percent (GI %)
Method: as §1, §2

SW-620 = test: NCI-60 one-dose SRB screen (Colon Cancer); conditions: Homo sapiens, single dose 10 µM, 48 h, read-out: Growth inhibition percent (GI %)
Method: as §1, §2

SF-268 = test: NCI-60 one-dose SRB screen (CNS Cancer); conditions: Homo sapiens, single dose 10 µM, 48 h, read-out: Growth inhibition percent (GI %)
Method: as §1, §2

SF-295 = test: NCI-60 one-dose SRB screen (CNS Cancer); conditions: Homo sapiens, single dose 10 µM, 48 h, read-out: Growth inhibition percent (GI %)
Method: as §1, §2

SF-539 = test: NCI-60 one-dose SRB screen (CNS Cancer); conditions: Homo sapiens, single dose 10 µM, 48 h, read-out: Growth inhibition percent (GI %)
Method: as §1, §2

SNB-19 = test: NCI-60 one-dose SRB screen (CNS Cancer); conditions: Homo sapiens, single dose 10 µM, 48 h, read-out: Growth inhibition percent (GI %)
Method: as §1, §2

SNB-75 = test: NCI-60 one-dose SRB screen (CNS Cancer); conditions: Homo sapiens, single dose 10 µM, 48 h, read-out: Growth inhibition percent (GI %)
Method: as §1, §2

U251 = test: NCI-60 one-dose SRB screen (CNS Cancer); conditions: Homo sapiens, U-251, single dose 10 µM, 48 h, read-out: Growth inhibition percent (GI %)
Method: as §1, §2

LOX IMVI = test: NCI-60 one-dose SRB screen (Melanoma); conditions: Homo sapiens, single dose 10 µM, 48 h, read-out: Growth inhibition percent (GI %)
Method: as §1, §2

NS(=O)(=O)c1ccc(NC(=O)COC(=O)c2cn(-c3ccc(S(N)(=O)=O)cc3)nc2-c2ccccc2)cc1 [Compound 4a, 2-Oxo-2-[(4-sulfamoylphenyl)amino] ethyl 3-phenyl-1-(4-sulfamoylphenyl)-1H-pyrazole-4-carboxylate]
inhibition at 10 µM (CCRF-CEM): < 5%
inhibition at 10 µM (HL-60(TB)): 16.6%
inhibition at 10 µM (K-562): 16.7%
inhibition at 10 µM (MOLT-4): < 5%
inhibition at 10 µM (RPMI-8226): < 5%
inhibition at 10 µM (SR): < 5%
inhibition at 10 µM (A549/ATCC): < 5%
inhibition at 10 µM (EKVX): < 5%
inhibition at 10 µM (HOP-62): < 5%
inhibition at 10 µM (HOP-92): < 5%
inhibition at 10 µM (NCI-H226): < 5%
inhibition at 10 µM (NCI-H23): < 5%
inhibition at 10 µM (NCI-H322M): < 5%
inhibition at 10 µM (NCI-H460): < 5%
inhibition at 10 µM (NCI-H522): < 5%
inhibition at 10 µM (COLO 205): < 5%
inhibition at 10 µM (HCC-2998): < 5%
inhibition at 10 µM (HCT-116): 27.8%
inhibition at 10 µM (HCT-15): < 5%
inhibition at 10 µM (HT29): < 5%
inhibition at 10 µM (KM12): < 5%
inhibition at 10 µM (SW-620): < 5%
inhibition at 10 µM (SF-268): < 5%
inhibition at 10 µM (SF-295): < 5%
inhibition at 10 µM (SF-539): < 5%
inhibition at 10 µM (SNB-19): < 5%
inhibition at 10 µM (SNB-75): 31.1%
inhibition at 10 µM (U251): < 5%
inhibition at 10 µM (LOX IMVI): < 5%

Source: paper PMC12454493, “Insight on novel sulfamoylphenyl pyrazole derivatives as anticancer carbonic anhydrase inhibitors” (Molecular Diversity, 2024)
